According to patent US20240360146A1, “BRUTON'S TYROSINE KINASE AND MUTANT DEGRADER, COMPOSITION AND APPLICATION THEREOF” (HANGZHOU HEALZEN THERAPEUTICS CO., LTD., priority 2021, published 2024):

Tests used:
BTK = molecular target: T1, BTK (Homo sapiens, UniProt Q06187); assay: BTK degradation activity test in Mino cells; format: cell-based; conditions: 16 h incubation, Western blot or Elisa
T1 construct: endogenous in cells; host or cells: Mino cells
Method in brief: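 DC50 derived by curve fitting of BTK degradation rates versus untreated control across compound concentrations. Mino cells were exposed for 16 h; BTK levels in lysates, normalised via BCA protein, measured by Western blot or ELISA.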

OCI-LY10 cells = assay: Inhibitory activity on OCI-LY10 cell proliferation (MTS); format: cell-based; conditions: Homo sapiens, 72 h
Experimental: The anti-tumor efficacy of the compounds was tested by measuring their inhibitory effects on OCI-LY10 and Mino cell proliferation. OCI-LY10 and Mino cells were cultured in RPMI-1640 medium containing 10% fetal calf serum. OCI-LY10 and Mino cells were digested, inoculated in a 96-well plate at a cell concentration of 10000 cells/well, and incubated overnight at 37° C., 5% CO2. Compounds of different concentrations (1000 nM, 4-fold dilution, 8 points) were added to the 96-well plate and incubated for 72 h (LY10) or 168 h (Mino) at 37° C. and 5% CO2, and then 20 uL of MTS was added to each well. After incubation for 2 h, 25 μl of 10% SDS was added to each well to terminate the reaction. The absorbance at 490 nm and 650 nm were measured with a microplate reader. IC50 was calculated using GraphPad Prism 5.0.

Mino cells = assay: Inhibitory activity on Mino cell proliferation (MTS); format: cell-based; conditions: Homo sapiens, 168 h incubation
Method in brief: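 Cells seeded at 10000/well, treated with compounds from 1000 nM (4-fold, 8 points) for 72 h (OCI-LY10) or 168 h (Mino) at 37° C. MTS added for 2 h, stopped with SDS, absorbance read at 490 and 650 nm; IC50 from dose-response fit.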

[1] = Stability of compounds in human liver microsome; format: in vitro ADME; conditions: human liver microsomes, NADPH, 37° C., sampling 0-120 min; read-out: Human liver microsome T1/2
Experimental: Compound to be tested: the compound to be tested (1 mg) was dissolved in DMSO (10 mL) to formulate to 0.1 mg/mL.
Internal standard compound: the internal standard compound (1 mg) was dissolved in DMSO (10 mL), 10 μL was taken and diluted to 10 mL to formulate to 100 ng/mL.
NADPH solution: NADPH (2.08 mg) was dissolved in PBS (50 μL) buffer to formulate to 50 mM.
Under the condition of ice bath, 1 mg of human liver microparticles was add to PBS (1 mL) buffer, then NADPH (20 μL) was added, and incubated at 37° C. for 5 min. 10 μL of the compound to be tested was added, and then samples were taken at 0, 15, 30, 60 and 120 min respectively. 10 μL of the solution was taken with a pipette each time and added to 490 μL of the solution containing the internal standard compound. The resulting solution was vortexed and then placed on ice, and then sampling at another time point continues. All samples were centrifuged at 10,000 rpm for 10 min, and the supernatant was taken for LC/MS testing. The metabolism of the compound in liver microsomes was calculated based on the peak area.

T1 sequence (Q06187 whole entry): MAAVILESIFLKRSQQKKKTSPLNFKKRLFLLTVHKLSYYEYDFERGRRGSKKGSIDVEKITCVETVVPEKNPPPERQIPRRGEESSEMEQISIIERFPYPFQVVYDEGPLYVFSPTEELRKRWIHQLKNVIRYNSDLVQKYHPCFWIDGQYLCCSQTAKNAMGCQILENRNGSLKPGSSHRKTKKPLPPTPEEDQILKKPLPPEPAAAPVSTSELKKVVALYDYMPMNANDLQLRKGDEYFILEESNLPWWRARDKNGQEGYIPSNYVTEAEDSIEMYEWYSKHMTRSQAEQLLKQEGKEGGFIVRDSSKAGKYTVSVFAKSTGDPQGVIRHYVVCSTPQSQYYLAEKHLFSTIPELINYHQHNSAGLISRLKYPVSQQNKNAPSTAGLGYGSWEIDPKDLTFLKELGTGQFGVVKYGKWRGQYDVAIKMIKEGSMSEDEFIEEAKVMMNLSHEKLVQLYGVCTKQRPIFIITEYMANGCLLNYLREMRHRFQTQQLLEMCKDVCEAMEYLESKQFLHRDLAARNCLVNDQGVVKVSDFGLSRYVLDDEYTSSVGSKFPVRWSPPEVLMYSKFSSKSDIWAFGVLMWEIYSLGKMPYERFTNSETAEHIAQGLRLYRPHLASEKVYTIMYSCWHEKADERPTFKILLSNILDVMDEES

DC50 (BTK) [nM]	IC50 (OCI-LY10 cells) [nM]	half-life at 0.97 µg/mL [1] [min]	Structure (SMILES)	IC50 (Mino cells) [nM]
< 1	0.79	24	NC(=O)c1nnc(N2CCC[C@@H](N3C(=O)CCC3=O)C2)nc1Nc1ccc(C2CCN(CC3CCN(c4ccc5c(c4)C(=O)N(C4CCC(=O)NC4=O)C5=O)C3)CC2)cc1 (stereo partly drawn) [Compound 136, 5-((4-(1-((1-(2-(2,6-dioxopiperidin-3-yl)-1,3-dioxoisoindolin-5-yl)pyrrolidin-3-yl)methyl)piperidin-4-yl)phenyl)amino)-3-((R)-3-(2,5-dioxopyrrolidin-1-yl)piperidin-1-yl)-1,2,4-triazin-6-carboxamide]	1.61
< 1	–	> 30	Cc1ccc(C(=O)N2CCC(CN3CCN(c4ccc(Nc5nc(N6CCC[C@@H](N7CCN(C)C7=O)C6)nnc5C(N)=O)cc4F)CC3)C2)cc1N1CCC(=O)NC1=O (stereo partly drawn) [Compound 150, 5-((4-(4-((1-(3-(2,4-dioxotetrahydropyrimidin-1(2H)-yl)-4-methylbenzoyl)pyrrolidin-3-yl)methyl)piperazin-1-yl)-3-fluorophenyl)amino)-3-((R)-3-(3-methyl-2-oxoimidazolin-1-yl)piperidin-1-yl)-1,2,4-triazin-6-carboxamide]	1.91
< 1	1.03	> 30	CN1CCN([C@@H]2CCCN(c3nnc(C(N)=O)c(Nc4ccc(N5CCN(CC6CCN(c7ccc(C(=O)NC8CCC(=O)NC8=O)cn7)C6)CC5)c(F)c4)n3)C2)C1=O (stereo partly drawn) [Compound 174, 5-((4-(4-((1-(5-((2,6-dioxopiperidin-3-yl)carbamoyl)pyridin-2-yl)pyrrolidin-3-yl)methyl)piperazin-1-yl)-3-fluorophenyl)amino)-3-((R)-3-(3-methyl-2-oxoimidazolidin-1-yl)piperidin-1-yl)-1,2,4-triazin-6-carboxamide]	–
< 1	–	> 30	CN1CCN([C@@H]2CCCN(c3nnc(C(N)=O)c(Nc4ccc(N5CCN(CC6CCN(c7ccc(C(=O)NC8CCC(=O)NC8=O)c8c7OCO8)CC6)CC5)c(F)c4)n3)C2)C1=O (some centres unmarked) [Compound 177]	2.99
< 1	0.57	> 30	CN1CCN([C@@H]2CCCN(c3nnc(C(N)=O)c(Nc4ccc(N5CCN(CC6CCN(c7ccc(NC8CCC(=O)NC8=O)c(F)c7)CC6)CC5)c(F)c4)n3)C2)C1=O (stereo partly drawn) [Compound 205, 5-((4-(4-((1-(4-((2,6-dioxopiperidin-3-yl)amino)-3-fluorophenyl)piperidin-4-yl)methyl)piperazin-1-yl)-3-fluorophenyl)amino)-3-((R)-3-(3-methyl-2-oxoimidazolidin-1-yl)piperidin-1-yl)-1,2,4-triazin-6-carboxamide]	–
< 1	0.78	> 30	COc1cc(N2CCC(CN3CCN(c4ccc(Nc5nc(N6CCC[C@@H](N7CCN(C)C7=O)C6)nnc5C(N)=O)cc4F)CC3)CC2)ccc1C(=O)NC1CCC(=O)NC1=O (stereo partly drawn) [Compound 181, 5-((4-(4-((1-(4-((2,6-dioxopiperidin-3-yl)carbamoyl)-3-methoxyphenyl)piperidin-4-yl)methyl)piperazin-1-yl)-3-fluorophenyl)amino)-3-((R)-3-(3-methyl-2-oxoimidazolidin-1-yl)piperidin-1-yl)-1,2,4-triazin-6-carboxamide]	–
< 1	0.83	> 30	CN1CCN([C@@H]2CCCN(c3nnc(C(N)=O)c(Nc4ccc(N5CCN(CC6CCN(c7ccc8c(=O)n(C9CCC(=O)NC9=O)ccc8c7)CC6)CC5)c(F)c4)n3)C2)C1=O (stereo partly drawn) [Compound 232, 5-((4-(4-((1-(2-(2,6-dioxopiperidin-3-yl)-1-oxo-1,2-dihydroisoquinolin-6-yl)piperidin-4-yl)methyl)piperazin-1-yl)-3-fluorophenyl)amino)-3-((R)-3-(3-methyl-2-oxoimidazolidin-1-yl)piperidin-1-yl)-1,2,4-triazin-6-carboxamide]	–

Continued, compound first:

Structure (SMILES)	DC50 (BTK) [nM]	IC50 (OCI-LY10 cells) [nM]	half-life at 0.97 µg/mL [1] [min]	IC50 (Mino cells) [nM]
CN1CCN([C@@H]2CCCN(c3nnc(C(N)=O)c(Nc4ccc(N5CCN(CC6CCN(c7ccc(N8CCC(=O)NC8=O)c(F)c7)CC6)CC5)c(F)c4)n3)C2)C1=O [Compound 184, (R)-5-((4-(4-((1-(4-(2,4-dioxotetrahydropyrimidin-1(2H)-yl)-3-fluorophenyl)piperidin-4-yl)methyl)piperazin-1-yl)-3-fluorophenyl)amino)-3-(3-(3-methyl-2-oxoimidazolidin-1-yl)piperidin-1-yl)-1,2,4-triazin-6-carboxamide]	< 1	1.56	> 30	–
CN1CCN([C@@H]2CCCN(c3nnc(C(N)=O)c(Nc4ccc(N5CCN(CC6CCN(c7ccc8c(c7)n(C)c(=O)n8C7CCC(=O)NC7=O)C6)CC5)c(F)c4)n3)C2)C1=O (stereo partly drawn) [Compound 218, 5-((4-(4-((1-(1-(2,6-dioxopiperidin-3-yl)-3-methyl-2-oxo-2,3-dihydro-H-benzo[d]imidazol-5-yl)pyrrolidin-3-yl)methyl)piperazin-1-yl)-3-fluorophenyl)amino)-3-((R)-3-(3-methyl-2-oxoimidazolidin-1-yl)piperidin-1-yl)-1,2,4-triazin-6-carboxamide]	< 1	–	> 30	–
CN1CCN([C@@H]2CCCN(c3nnc(C(N)=O)c(Nc4ccc(N5CCN(CC6CCN(c7ccc8c(c7)C(=O)N(C7CCC(=O)NC7=O)C8=O)CC6)CC5)c(F)c4)n3)C2)C1=O (stereo partly drawn) [Compound 134, 5-((4-(4-((1-(2-(2,6-dioxopiperidin-3-yl)-1,3-dioxoisoindolin-5-yl)piperidin-4-yl)methyl)piperazin-1-yl)-3-fluorophenyl)amino)-3-((R)-3-(3-methyl-2-oxoimidazolin-1-yl)piperidin-1-yl)-1,2,4-triazin-6-carboxamide]	< 1	–	> 30	1.72
CN1CCN([C@@H]2CCCN(c3nnc(C(N)=O)c(Nc4ccc(N5CCN(CC6CCN(c7ccc(C(=O)NC8CCC(=O)NC8=O)c8[nH]cnc78)CC6)CC5)c(F)c4)n3)C2)C1=O (stereo partly drawn) [Compound 179, 4-(4-((4-(4-((6-carbamoyl-3-((R)-3-(3-methyl-2-oxoimidazolidin-1-yl)piperidin-1-yl)-1,2,4-triazin-5-yl)amino)-2-fluorophenyl)piperazin-1-yl)methyl)piperidin-1-yl)-N-(2,6-dioxopiperidin-3-yl)-1Hbenzimidazol-7-carboxamide]	< 1	–	> 30	1.47
CN1CCN([C@@H]2CCCN(c3nnc(C(N)=O)c(Nc4ccc(N5CCN(CC6CCN(c7ccc8c9c([nH]c8c7)C(=O)N(C7CCC(=O)NC7=O)C9)CC6)CC5)c(F)c4)n3)C2)C1=O (stereo partly drawn) [Compound 222, 5-((4-(4-((1-(2-(2,6-dioxopiperidin-3-yl)-3-oxo-1,2,3,4-tetrahydropyrrolo[3,4-b]indol-6-yl)piperidin-4-yl)methyl)piperazin-1-yl)-3-fluorophenyl)amino)-3-((R)-3-(3-methyl-2-oxoimidazolidin-1-yl)piperidin-1-yl)-1,2,4-triazin-6-carboxamide]	< 1	–	> 30	4.15
CN1CCN([C@@H]2CCCN(c3nnc(C(N)=O)c(Nc4ccc(N5CCN(CC6CCN(c7ccc(C(=O)NC8CCC(=O)NC8=O)nc7)C6)CC5)c(F)c4)n3)C2)C1=O (some centres unmarked) [Compound 173]	< 1	–	> 30	–
